Source: publication PMC9781003, “Two Antenna-Enriched Odorant Binding Proteins in Dioryctria abietella Tuned to General Odorants and Insecticides” (Insects, 2022)
Values joined by “and” are separate entries in the source; they are usually repeats but may differ in a detail not shown here. Identical values can stand only once. Like-named read-outs stand apart in the source and are kept apart here.

What was measured:
DabiOBP14 = format: binding, Dioryctria abietella; conditions: for Ki: competitive displacement of 1-NPN, three replicates, mean ± SE, read-out: OBP14 Ki (dissociation constant); for OBP14 F.D. (%) fluorescence displacement percent: ligand at 20 μM, DabiOBP14/1-NPN each 2 μM, Tris-HCl pH 7.4, NB = no binding
Protocol: (§1) In the binding assays, we selected 100 compounds derived from host/non-host plants and man-made insecticides widely used for the control of lepidopteran pests, representing 88 general odorants (21 esters, 21 alcohols, 14 aldehydes, 13 alkenes, seven ketones, 11 alkanes and one acid) and 12 insecticides. These compounds and N-phenyl-1-naphthylamine (1-NPN) were purchased from Aladdin and Sigma-Aldrich, with the highest available purity. They were first diluted into 100 mM, using methanol (HPLC purity grade, ≥99.9%) as a stock solution. The concentrations of the work solution for each ligand and 1-NPN were set at 1 mM.
In order to measure the binding properties of the DabiOBPs to the 100 ligands, competitive binding assays were performed on a RF5301PC fluorescence spectrophotometer (Shimadzu, Japan). The concentrations of DabiOBPs and the fluorescent probe 1-NPN were set at 2 μM. The binding of DabiOBPs to 1-NPN in 20 mM Tris-HCl buffer (pH 7.4) was measured by adding final concentrations of 2–16 μM 1-NPN. Accordingly, binding constants (K1-NPN) of the DabiOBPs and 1-NPN were calculated using GraphPad Prism 7 (GraphPad Software Inc., San Diego, CA). The binding of the DabiOBPs to various ligands was conducted by adding different concentrations of ligands (2, 4, 6, 8, 12, 16 and 20 μM) into the DabiOBP5/1-NPN (each 2 μM) or DabiOBP14/1-NPN (each 2 μM) mixtures. For the ligands replacing over a half of 1-NPN fluorescence (50%) at 20 μM, three replicates were performed. The excitation wavelength was set at 337 nm and the emission peaks were recorded at around 400 nm. The dissociation constants (Ki) of the tested ligands to DabiOBPs were computed, using the equation: Ki = [IC50]/(1 + [1-NPN]/K1-NPN), where [1-NPN] was the free concentration of 1-NPN and IC50 was the concentration of ligands replacing 50% of 1-NPN fluorescence.

DabiOBP5 = biological target: T1, DabiOBP5 (Dioryctria abietella, UniProt A0A8E6HS34); assay: Competitive fluorescence binding assay with 1-NPN probe, recombinant DabiOBP5
T1 sequence (A0A8E6HS34 19-139): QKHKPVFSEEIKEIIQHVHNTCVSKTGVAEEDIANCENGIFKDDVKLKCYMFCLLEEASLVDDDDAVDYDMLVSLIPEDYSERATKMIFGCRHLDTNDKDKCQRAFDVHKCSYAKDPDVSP
Text: as §1, with “They were first diluted into 100 mM, using methanol (HPLC purity grade, ≥99.9%) as a stock solution.” left out
In order to measure the binding properties of the DabiOBPs to the 100 ligands, competitive binding assays were performed on a RF5301PC fluorescence spectrophotometer (Shimadzu, Japan). The concentrations of DabiOBPs and the fluorescent probe 1-NPN were set at 2 μM. […] Accordingly, binding constants (K1-NPN) of the DabiOBPs and 1-NPN were calculated using GraphPad Prism 7 (GraphPad Software Inc., San Diego, CA). […] For the ligands replacing over a half of 1-NPN fluorescence (50%) at 20 μM, three replicates were performed. The excitation wavelength was set at 337 nm and the emission peaks were recorded at around 400 nm.

[1] = pH 7.4, read-out: OBP5 F.D. (%) fluorescence displacement percent
[2] = read-out: OBP5 Ki (dissociation constant); competitive displacement of 1-NPN; three replicates; mean ± SE
[3] = ligand at 20 μM; DabiOBP5/1-NPN each 2 μM; Tris-HCl pH 7.4; NB = no binding; read-out: OBP5 F.D. (%) fluorescence displacement percent
[4] = ligand at 20 μM; DabiOBP5/1-NPN each 2 μM; Tris-HCl pH 7.4; NB = no binding

SMILES | OBP14 F.D. (%) fluorescence displacement percent (DabiOBP14) [%] | inhibition at 20 µM (DabiOBP5; [3]) [%] | other results
CCOCn1c(-c2ccc(Cl)cc2)c(C#N)c(Br)c1C(F)(F)F [Chlorfenapyr] | 60.84 | – | Ki (DabiOBP14; listed as chlorfenapyr): < 13 µM; Ki (DabiOBP14): 8.41 ± 0.42 µM; inhibition at 20 µM (DabiOBP5; [1]): 62%; Ki (DabiOBP5; [2]): 8.16 ± 0.55 µM; Ki (DabiOBP5; read-out: OBP5 Ki (dissociation constant); competitive displacement of 1-NPN; three replicates; mean ± SE; listed as chlorfenapyr): < 13 µM
CCOP(=S)(OCC)Oc1nc(Cl)c(Cl)cc1Cl [Chlorpyrifos] | 72.41 | – | Ki (DabiOBP14; listed as chlorpyrifos): < 13 µM; Ki (DabiOBP14): 4.62 ± 0.46 µM; inhibition at 20 µM (DabiOBP5; [1]): 66.1%; Ki (DabiOBP5; [2]): 5.92 ± 0.48 µM; Ki (DabiOBP5; read-out: OBP5 Ki (dissociation constant); competitive displacement of 1-NPN; three replicates; mean ± SE; listed as chlorpyrifos): < 13 µM
CCCCCCCCCC=O [Decanal] | 21.35 | 29.1 | –
CCCCCCCCCCOC(C)=O [Decyl acetate] | 15.15 | 26.2 | –
CC1(C)[C@H](C(=O)O[C@H](C#N)c2cccc(Oc3ccccc3)c2)[C@@H]1C=C(Br)Br [Deltamethrin] | 38.21 | 28.5 | –
O=C(NC(=O)c1c(F)cccc1F)Nc1ccc(Cl)cc1 [Diflubenzuron] | 30.33 | 21.4 | –
CCCCCCCCCCCC=O [Dodecanal] | 3.43 | 30.6 | –
CCCCCCCCCCCC [Dodecane] | 17.71 | 31.9 | –
CCC/C=C/CO [E2-Hexen-1-ol] | 18.64 | – | OBP5 F.D. (%) fluorescence displacement percent (DabiOBP5; [4]): 36.50%
CCC/C=C/C=O [E2-Hexenal] | 32.34 | – | OBP5 F.D. (%) fluorescence displacement percent (DabiOBP5; [4]): 33.10%
CCOC(C)=O [Ethyl acetate] | 23.29 | 19 | –
CCOC(=O)c1ccccc1 [Ethyl benzoate] | 30.02 | 29.4 | –
CCCC(=O)OCC [Ethyl butyrate] | 31.72 | 32 | –
CCCCCC(=O)OCC [Ethyl hexanoate] | 29.43 | 24.2 | –
CCCCC/C=C\C=C\C(=O)OCC [Ethyl-(2E,4Z)-decadienoate] | 68.07 | – | Ki (DabiOBP14; listed as ethyl-(2E,4Z)-decadienoate): < 13 µM; Ki (DabiOBP14): 6.45 ± 0.43 µM; Ki (DabiOBP5; competitive displacement of 1-NPN; three replicates; mean ± SE; listed as ethyl-(2E,4Z)-decadienoate; read-out: OBP5 Ki (dissociation constant)): < 13 µM; Ki (DabiOBP5; competitive displacement of 1-NPN; three replicates; mean ± SE; read-out: OBP5 Ki (dissociation constant)): 5.67 ± 0.55 µM; OBP5 F.D. (%) fluorescence displacement percent (DabiOBP5; [4]): 69.83%
CC(C)=CCC/C(C)=C/CC/C(C)=C/CO [Farnesol] | 36.20 | 36.3 | –
N#Cc1nn(-c2c(Cl)cc(C(F)(F)F)cc2Cl)c(N)c1[S+]([O-])C(F)(F)F (stereo not drawn) [Fipronil] | 29.70 | 23.7 | –
CC(C)=CCC/C(C)=C/CO [Geraniol] | 28.67 | 32.9 | –
CC(=O)OC/C=C(\C)CCC=C(C)C [Geranyl acetate] | 27.39 | 26.5 | –
CCCCCCC=O [Heptanal] | 25.87 | 42.5 | –
CCCCCCC [Heptane] | 22.91 | 31.4 | –
CCCCCCCOC(C)=O [Heptyl acetate] | 33.70 | 41 | –
CCCCCC=O [Hexanal] | 32.96 | 39.3 | –
CCCCCCOC(C)=O [Hexyl acetate] | 29.22 | 23.7 | –

SMILES | OBP14 F.D. (%) fluorescence displacement percent (DabiOBP14) [%] | inhibition at 20 µM (DabiOBP5; [3]) [%] | other results
O=[N+]([O-])NC1=NCCN1Cc1ccc(Cl)nc1 [Imidacloprid] | 39.56 | 22.5 | –
CCCCCCCCCCCC(=O)O [Lauric acid] | 30.18 | – | OBP5 F.D. (%) fluorescence displacement percent (DabiOBP5; [4]): 33.87%
C=C(C)[C@H]1CC=C(C)CC1 [Limonene] | 30.81 | – | OBP5 F.D. (%) fluorescence displacement percent (DabiOBP5; [4]): 38.31%
C=CC(C)(O)CCC=C(C)C (stereo not drawn) [Linalool] | 31.71 | 33.3 | –
O=C1CCC[C@@H]2[C@H]3CCCN4CCC[C@@H](CN12)[C@@H]34 [Matrine] | 29.59 | 29 | –
COC(C)=O [Methyl acetate] | 27.21 | – | OBP5 F.D. (%) fluorescence displacement percent (DabiOBP5; [4]): 27.62%
COC(=O)c1ccccc1 [Methyl benzoate] | 30.65 | 30.5 | –
CCCCCCCCCCCC(=O)OC [Methyl laurate] | 12.60 | 7.25 | –
C=CC(=C)CCC=C(C)C [Myrcene] | 34.84 | 37.1 | –
CCCCCCCCCCCCCCCCCCC [Nonadecane] | 15.30 | 27.7 | –
CCCCCCCCC=O [Nonanal] | 23.55 | 31.5 | –
CCCCCCCCCOC(C)=O [Nonyl acetate] | 22.98 | 16.5 | –
C=CC(C)=CCC=C(C)C [Ocimene] | 33.18 | – | OBP5 F.D. (%) fluorescence displacement percent (DabiOBP5; [4]): 33.97%
CCCCCCCCCCCCCCCCCC [Octadecane] | 23.94 | 26.5 | –
CCCCCCCC=O [Octanal] | 34.48 | 35.6 | –
CCCCCCCCOC(C)=O [Octyl acetate] | 30.09 | 35.4 | –
OCCc1ccccc1 [Phenethyl alcohol] | 10.00 | 37.6 | –
O=C(Oc1ccccc1)c1ccccc1 [Phenyl benzoate] | 34.36 | 31.7 | –
O=CCc1ccccc1 [Phenylacetaldehyde] | 33.05 | 29.1 | –
CCOP(=S)(OCC)O/N=C(\C#N)c1ccccc1 [Phoxim] | 89.62 | – | Ki (DabiOBP14; listed as phoxim): < 13 µM; Ki (DabiOBP14): 2.38 ± 0.28 µM; inhibition at 20 µM (DabiOBP5; [1]): 82%; Ki (DabiOBP5; [2]): < 13 µM and 2.89 µM
CCCOC(C)=O [Propyl acetate] | 25.46 | 31.4 | –
C=C(C)[C@H]1Cc2c(ccc3c2O[C@@H]2COc4cc(OC)c(OC)cc4[C@@H]2C3=O)O1 [Rotenone] | 58.66 | – | Ki (DabiOBP14): < 13 µM and 10.2 µM; inhibition at 20 µM (DabiOBP5; [1]): 56%; Ki (DabiOBP5; [2]): < 13 µM and 12.7 µM
CC(C)=CCC/C(C)=C/CC/C(C)=C/CC/C=C(\C)CC/C=C(\C)CCC=C(C)C [Squalene] | 24.81 | 32.3 | –
